Source: US20150098905A1, “METHODS TO DETECT A FUNGAL CELL” (priority 2012, published 2015)
Values after ≈ are worked out from the molar mass of the structure shown. Numbered stars: 1 amine (or outer) side, 2 acyl side, 3 side chain; on linkers, the order of the positions; unused ones are H or OH. Bridge positions count the residues as written; N and C are the ends. Square brackets hold non-standard residues; d marks the D form. Peptide text beside a SMILES is read from it. * marks the point of attachment. hTyr(3S-OH,4S-OH,3'-OSO3H) = N[C@H](C(=O)O)[C@H](O)[C@@H](O)c1ccc(O)c(OS(=O)(=O)O)c1; pTerphenylCO(4''-OnC5H11) = CCCCCOc1ccc(-c2ccc(-c3ccc(C(=O)*)cc3)cc2)cc1; Orn(4R-OH,5R-OH) = O=C([C@H](C[C@@H](O)[C@@H](O)N[*:3])N[*:1])[*:2]; hTyr(3S-OH,4S-OH) = N[C@H](C(=O)O)[C@H](O)[C@@H](O)c1ccc(O)cc1; Pro(3S-OH,4S-Me) = C[C@H]1CN[C@H](C(=O)O)[C@H]1O; X1 = CCCCCOc1ccc(-c2cc(-c3ccc(C(=O)*)cc3)no2)cc1; Gln(3R-OH) = NC(=O)C[C@@H](O)[C@H](N)C(=O)O; Hyp = O=C(O)[C@@H]1C[C@@H](O)CN1

Assays:
[1] = test system: C. albicans and A. fumigatus cells; assay: Pretreatment with unlabeled antifungal drug followed by probe labeling; assay type: cell-based, Candida albicans, Aspergillus fumigatus; details: for effect of pretreatment on CSF-BOD labeling: pretreatment C. albicans 1 h, A. fumigatus 2 h, azoles at one dilution below the MIC, then CSF-BOD; for effect of pretreatment on labeling of cells by POS-BOD: pretreatment with unlabeled drug, then POS-BOD
Description: To illustrate the potential of CSF-BOD and POS-BOD for visualizing fungal cells, the reagent was used to probe for the presence of Candida and Aspergillus species in a variety of matrices including solid and liquid growth media. The clinical A. fumigatus wild type strain R21 and Candida albicans ATCC strain 90028 were used for all the experiments. For Aspergillus, one drop of yeast extract peptone dextrose (YPD) agar was placed in the upper right corner of each well of a 15-well multitest slide followed by the addition of 10 μl of saline containing 105 conidia of R21. The slide was placed in a sterile petri dish with distilled water to provide a moist environment and incubated in a 37° C. incubator for 10-16 hours to facilitate germination and growth of hyphal elements. A 10 μl aliquot of CSF-BOD (170 ng/ml) or POS-BOD (150 ng/ml) was added to each well and incubated for 6 h at 37° C., followed by washing 3 times with sterile water and drying by vacuum. For Candida, an overnight culture of C. albicans was grown, washed by centrifugation and resuspended in dH2O. The yeast cells were added to RPMI and incubated at 200 rpm for 1 h at 37° C. to form germ tubes before being washed and resuspended in a 1 ml solution of CSF-BOD (120 ng/mil) or POS-BOD (150 ng/ml). The cells with drug were incubated again at 200 rpm for 1 h at 37° C., washed and resuspended in 50 ml of dH2O. A 15 well slide was prepared using a poly-L-lysine to tightly adhere cells to the wells. A 10 μL aliquot of Candida cells was placed on each well and incubated for 10 minutes, aspirated off, and 1 μL Slow Fade Antifade reagent was added to prolong the fluorescent life and moisture level of the cells on the each slide. Each slide was observed under 100× magnification with the total internal reflection objective lens (TIRF) of a Nikon Eclipse 90i fluorescent microscope. The 15 wells of the slides were examined individually using Volocity 3D Image Analysis Software (PerkinElmer). Individual cells, hyphal elements and clusters of cells were visualized, analyzed, and captured in bright field lighting and repeated under a Green Fluorescent Protein (GFP) light setting.

[2] = test system: A. fumigatus wild type strain R21; assay: Cell labeling with fluorescent probe, fluorescence microscopy; assay type: cell-based, Aspergillus fumigatus; details: control, species not given
Description: To illustrate the potential of CSF-BOD and POS-BOD for visualizing fungal cells, the reagent was used to probe for the presence of Candida and Aspergillus species in a variety of matrices including solid and liquid growth media. The clinical A. fumigatus wild type strain R21 and Candida albicans ATCC strain 90028 were used for all the experiments. For Aspergillus, one drop of yeast extract peptone dextrose (YPD) agar was placed in the upper right corner of each well of a 15-well multitest slide followed by the addition of 10 μl of saline containing 105 conidia of R21. The slide was placed in a sterile petri dish with distilled water to provide a moist environment and incubated in a 37° C. incubator for 10-16 hours to facilitate germination and growth of hyphal elements. A 10 μl aliquot of CSF-BOD (170 ng/ml) or POS-BOD (150 ng/ml) was added to each well and incubated for 6 h at 37° C., followed by washing 3 times with sterile water and drying by vacuum. For Candida, an overnight culture of C. albicans was grown, washed by centrifugation and resuspended in dH2O. […] Individual cells, hyphal elements and clusters of cells were visualized, analyzed, and captured in bright field lighting and repeated under a Green Fluorescent Protein (GFP) light setting.

[3] = test system: C. albicans; assay: Antifungal activity (MIC) of labeled and unlabeled caspofungin; assay type: cell-based; details: Candida albicans
Procedure: A derivative of CSF using BODIPY (BOD), an analog that resembles fluorescein but is smaller and more hydrophobic, was produced to test the CSF-BOD with various fungal pathogens. BODIPY-succinimidate was incubated with pure CSF in the presence of triethylamine as proton acceptor in DMF. The crude product was purified by TLC silica gel chromatography and characterized using mass spectroscopy, fluorescence and UV spectroscopy. The modified agent retained its specificity and sensitivity to the fungal target. […] BODIPY coupled to posaconazole (POS) was formed by modifying a single hydroxyl group of posaconazole with succinic anhydride (FIG. 6).

Compound | effect of pretreatment on CSF-BOD labeling [1] | labeling by unconjugated drug or dye alone [2] | effect of pretreatment on labeling of cells by POS-BOD [1] | MIC [3] [µg/mL]
CCCCCOc1ccc(-c2ccc(-c3ccc(C(=O)N[C@H]4C[C@@H](O)[C@@H](O)NC(=O)[C@@H]5[C@@H](O)[C@@H](C)CN5C(=O)[C@H]([C@@H](C)O)NC(=O)[C@H]([C@H](O)[C@@H](O)c5ccc(O)cc5)NC(=O)[C@@H]5C[C@@H](O)CN5C(=O)[C@H]([C@@H](C)O)NC4=O)cc3)cc2)cc1 [anidulafungin] ({pTerphenylCO(4''-OnC5H11)}-[Orn(4R-OH,5R-OH)]T[Hyp][hTyr(3S-OH,4S-OH)]T[Pro(3S-OH,4S-Me)]; lactam 1-C) | eliminated the labeling |  |  | 
CC[C@H](C)C[C@H](C)CCCCCCCCC(=O)N[C@H]1C[C@@H](O)[C@@H](NCCN)NC(=O)[C@@H]2[C@@H](O)CCN2C(=O)[C@H]([C@H](O)CCN)NC(=O)[C@H]([C@H](O)[C@@H](O)c2ccc(O)cc2)NC(=O)[C@@H]2C[C@@H](O)CN2C(=O)[C@H]([C@@H](C)O)NC1=O [caspofungin] | intensified the fluorescence | failed to produce any labeling | little effect | 0.06 (≈ 0.0549 µM)
OC(Cn1cncn1)(Cn1cncn1)c1ccc(F)cc1F [fluconazole] | no effect |  |  | 
CCC(C)n1ncn(-c2ccc(N3CCN(c4ccc(OCC5COC(Cn6cncn6)(c6ccc(Cl)cc6Cl)O5)cc4)CC3)cc2)c1=O (stereo not shown) [itraconazole] | no effect |  |  | 
CCCCCOc1ccc(-c2cc(-c3ccc(C(=O)N[C@H]4C[C@@H](O)[C@@H](O)NC(=O)[C@@H]5[C@@H](O)[C@@H](C)CN5C(=O)[C@H]([C@H](O)CC(N)=O)NC(=O)[C@H]([C@H](O)[C@@H](O)c5ccc(O)c(OS(=O)(=O)O)c5)NC(=O)[C@@H]5C[C@@H](O)CN5C(=O)[C@H]([C@@H](C)O)NC4=O)cc3)no2)cc1 [micafungin] (X1-[Orn(4R-OH,5R-OH)]T[Hyp][hTyr(3S-OH,4S-OH,3'-OSO3H)][Gln(3R-OH)][Pro(3S-OH,4S-Me)]; lactam 1-C) | eliminated the labeling |  |  | 
CC[C@@H]([C@H](C)O)n1ncn(-c2ccc(N3CCN(c4ccc(OC[C@@H]5CO[C@@](Cn6cncn6)(c6ccc(F)cc6F)C5)cc4)CC3)cc2)c1=O [posaconazole] | no effect |  | greatly diminished or eliminated the fluorescence signal | 
C[C@@H](c1ncncc1F)[C@](O)(Cn1cncn1)c1ccc(F)cc1F [voriconazole] | no effect |  | greatly diminished or eliminated the fluorescence signal | 
boron-dipyrromethene [BODIPY] |  | failed to produce any labeling |  | 
